Assays:
[1] = target: T1, protein tyrosine phosphatase 1B (PTP1B) (Homo sapiens, UniProt P18031); settings: read-out: Ki5; cited from earlier work
T1 sequence (P18031 1-435): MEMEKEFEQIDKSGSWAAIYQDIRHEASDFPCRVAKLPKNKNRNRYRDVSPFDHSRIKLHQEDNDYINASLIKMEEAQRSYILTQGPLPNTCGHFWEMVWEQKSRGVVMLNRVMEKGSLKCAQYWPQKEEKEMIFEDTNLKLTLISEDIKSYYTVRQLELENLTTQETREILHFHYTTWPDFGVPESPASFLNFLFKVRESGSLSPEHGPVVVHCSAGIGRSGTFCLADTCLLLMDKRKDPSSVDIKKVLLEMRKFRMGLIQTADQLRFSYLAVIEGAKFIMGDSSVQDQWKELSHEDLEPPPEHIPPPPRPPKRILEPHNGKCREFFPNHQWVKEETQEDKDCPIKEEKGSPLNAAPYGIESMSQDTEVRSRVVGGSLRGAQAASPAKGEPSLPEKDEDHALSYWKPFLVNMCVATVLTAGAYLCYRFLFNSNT

T-47D [2] = test: Caspase cascade activation assay in T-47D cells (N-(Ac-DEVD)-N'-ethoxycarbonyl-R110 fluorogenic substrate); format: cell-based, Human; settings: 24 h incubation; for Caspase activity Ratio (net RFU of test compound to control): 0.016 to 10 μM final; for EC50: Homo sapiens, T47D, read-out: Caspase potency EC50
Protocol: (§1) Human breast cancer cell lines T-47D and ZR-75-1 were grown according to media component mixtures designated by American Type Culture Collection+10% FCS (Life Technologies Division of Invitrogen Corporation), in a 5% CO2-95% humidity incubator at 37° C. T-47D and ZR-75-1 cells were maintained at a cell density between 50 and 80% confluency at a cell density of 0.1 to 0.6×10^6 cells/ml. Cells were harvested at 600×g and resuspended at 0.65×10^6 cells/ml into appropriate media+10% FCS. An aliquot of 45 μl of cells was added to a well of a 96-well microtiter plate containing 2.5 μl of a 10% DMSO in RPMI-1640 media solution containing 0.16 to 100 μM of 6-bromo-3-[3-(4-nitrophenyl)-1-oxo-2-propenyl]-4-phenyl-2(1H)-quinolinone or other test compound (0.016 to 10 μM final). An aliquot of 22.5 μl of cells was added to a well of a 384-well microtiter plate containing 2.5 μl of a 10% DMSO in RPMI-1640 media solution without test compound as the control sample. The samples were mixed by agitation and then incubated at 37° C. for 24 h in a 5% CO2-95% humidity incubator. After incubation, the samples were removed from the incubator and 25 μl of a solution containing 14 μM of N-(Ac-DEVD)-N′-ethoxycarbonyl-R110 (SEQ ID No.: 1) fluorogenic substrate (Cytovia, Inc.; WO99/18856), 20% sucrose (Sigma), 20 mM DTT (Sigma), 200 mM NaCl (Sigma), 40 mM Na PIPES buffer pH 7.2 (Sigma), and 500 μg/ml lysolecithin (Calbiochem) was added. The samples were mixed by agitation and incubated at room temperature. Using a fluorescent plate reader (Model SpectraMax Gemini, Molecular Devices), an initial reading (T=0) was made approximately 1-2 min after addition of the substrate solution, employing excitation at 485 nm and emission at 530 nm, to determine the background fluorescence of the control sample. After the 3 h incubation, the samples were read for fluorescence as above (T=3 h).
(§2) The Relative Fluorescence Unit values (RFU) were used to calculate the sample readings as follows: RFU(T=3h)−Control RFU(T=0)=Net RFU(T=3h)
(§3) The activity of caspase cascade activation was determined by the ratio of the net RFU value for 6-bromo-3-[3-(4-nitrophenyl)-1-oxo-2-propenyl]-4-phenyl-2(1H)-quinolinone or other test compound to that of control samples. The EC50 (nM) was determined by a sigmoidal dose-response calculation (Prism 2.0, GraphPad Software Inc.).

ZR-75-1 [3] = test: Caspase cascade activation assay in ZR-75-1 cells (N-(Ac-DEVD)-N'-ethoxycarbonyl-R110 fluorogenic substrate); format: cell-based, Human; settings: ZR-75-1, 24 h incubation; for EC50: Homo sapiens, read-out: Caspase potency EC50; for Caspase activity Ratio (net RFU of test compound to control): 0.016 to 10 μM final
Protocol: as §1, §2, §3

ZR-75-1 [4] = test: Inhibition of cell proliferation (GI50), CellTiter 96 AQUEOUS One, ZR-75-1; format: cell-based; settings: Homo sapiens, ZR-75-1, 48 h; read-out: GI50 (dose for 50% inhibition of cell proliferation)
Protocol: (§4) T-47D and ZR-75-1 cells were grown and harvested as in Example 22. An aliquot of 90 μl of cells (2.2×10^4 cells/ml) was added to a well of a 96-well microtiter plate containing 10 μl of a 10% DMSO in RPMI-1640 media solution containing 1 nM to 100 μM of 6-bromo-3-[3-(4-nitrophenyl)-1-oxo-2-propenyl]-4-phenyl-2(1H)-quinolinone (0.1 nM to 10 μM final). An aliquot of 90 μl of cells was added to a well of a 96-well microtiter plate containing 10 μl of a 10% DMSO in RPMI-1640 media solution without compound as the control sample for maximal cell proliferation (AMax). The samples were mixed by agitation and then incubated at 37° C. for 48 h in a 5% CO2-95% humidity incubator. After incubation, the samples were removed from the incubator and 20 μL of CellTiter 96 AQUEOUS One Solution Cell Proliferation™ reagent (Promega) was added. The samples were mixed by agitation and incubated at 37° C. for 2-4 h in a 5% CO2-95% humidity incubator. Using an absorbance plate reader (Model 1420 Wallac Instruments), an initial reading (T=0) was made approximately 1-2 min after addition of the solution, employing absorbance at 490 nm. This determines the possible background absorbance of the test compounds. No absorbance for 6-bromo-3-[3-(4-nitrophenyl)-1-oxo-2-propenyl]-4-phenyl-2(1H)-quinolinone was found at 490 nm. After the 2-4 h incubation, the samples were read for absorbance as above (ATest). […]

T-47D [5] = test: Inhibition of cell proliferation (GI50), CellTiter 96 AQUEOUS One, T-47D; format: cell-based; settings: Homo sapiens, T47D, 48 h, read-out: GI50 (dose for 50% inhibition of cell proliferation)
Protocol: as §4

T-47D cells = test: Apoptosis in T-47D cells by propidium iodide flow cytometry (sub-diploid DNA content); format: cell-based, Human; settings: 5 μM, 48 h, control 3%
Protocol: T-47D, a breast cancer cell line, was maintained and harvested as described in Example 22. 5×10^5 cells were treated with 5 μM of 6-bromo-3-[3-(4-nitrophenyl)-1-oxo-2-propenyl]-4-phenyl-2(1H)-quinolinone for 48 h at 37° C. As a control, cells were also incubated with equivalent amount of solvent (DMSO). Cells were harvested at 1,200 rpm and then transferred to 12×75 mm polystyrene tubes. Cells were then resuspended in 500 μl of 1% Na Citrate, 0.1% Triton X-100, 50 μg/ml of propidium iodide and incubated at room temperature for 30 min followed by flow cytometer analysis. All flow cytometry analyses were performed on FACScalibur (Becton Dickinson) using Cell Quest analysis software. The x-axis plotted the amount of fluorescence and the y-axis is plotted the number of cells with the indicated fluorescence. The T-47D control cell population profile is seen in FIG. 1A. The sub-diploid DNA content of cells (FIG. 1B) is increased from 3% to 49% with compound treatment. The sub-diploid amount of DNA is indicative of apoptotic cells which have undergone DNA degradation or fragmentation.

| EC50 (T-47D [2]) | EC50 (ZR-75-1 [3]) | GI50 (T-47D [5]) | SMILES | Ki [1] | Caspase activity Ratio (net RFU of test compound to control) (T-47D [2]) | Caspase activity Ratio (net RFU of test compound to control) (ZR-75-1 [3]) | GI50 (ZR-75-1 [4]) | sub-diploid DNA content of cells (M1) (T-47D cells) |
| --- | --- | --- | --- | --- | --- | --- | --- | --- |
| – | – | – | O=C(/C=C/c1cccc([N+](=O)[O-])c1)c1c(-c2ccccc2)c2ccc([N+](=O)[O-])cc2[nH]c1=O [7-Nitro-3-[3-(3-nitrophenyl)-acryloyl]-4-phenyl-1H-quinolin-2-one] | 54000 nM | – | – | – | – |
| 1900 nM | 3300 nM | 500 nM | O=C(C=Cc1ccc([N+](=O)[O-])cc1)c1c(-c2ccccc2)c2cc(Br)ccc2[nH]c1=O [Compound A, 6-bromo-3-[3-(4-nitrophenyl)-1-oxo-2-propenyl]-4-phenyl-2(1H)-quinolinone] | – | 8.7 | 12.4 | 500 nM | 49% |
| 849 nM | 1800 nM | – | O=C(C=Cc1cccc([N+](=O)[O-])c1)c1c(-c2ccccc2)c2cc(Br)ccc2[nH]c1=O [Compound B, 6-bromo-3-[3-(3-nitrophenyl)-1-oxo-2-propenyl]-4-phenyl-2(1H)-quinolinone] | – | 10.6 | 12.1 | – | – |

Source: US20050165053A1, “Substituted4-aryl-3-(3-aryl-1-oxo-2-propenyl)-2(1h)-quinolinones and analogs as activators of caspases and inducers of apoptosis and the use thereof” (Cytovia, Inc., priority 2001, published 2005)
